# System: 293T cells
# Assay type: cell-based
structure (smiles),measurement,value
"C=C(C)[C@@H]1CCC(C)=C[C@H]1c1c(O)cc(CCCCC)cc1O [CBD, cannabidiol]",production of gectosomes encapsulated Nluc cargo,induces an elevated production

# Source: patent US20250177555A1 (priority 2022, published 2025)
